# According to patent US20230002344A1, “NOVEL BENZOTHIOPHENE DERIVATIVES AND USE THEREOF FOR STIMULATING MITOCHONDRIAL TURNOVER” (NIBN, The National Institute For Biotechnology In The Negev …, priority 2019, published 2023):
# Legend:
# Assay type in all cases: cell-based
# INS1 cells [1] = assay: Mitotracker Green pulse-chase (mitochondrial clearance); details: 25 uM, 18 h after MTG pulse
# Procedure: FIGS. 8A-E show the effect of two hit compounds on mitophagy confirmed by other methods. […] Cells were imaged using a 63× Plan Neofluar objective and the Airyscan module of a Zeiss LSM880 confocal microscope. […] Data are normalized by DMSO. […] After 18 h, cells were imaged. As control, cells were loaded with MTG 30 min prior imaging—time “0” (100% MTG staining). Cells were imaged using a 40× lens of a Perkin Elmer Operetta high-content imaging system microscope (FIG. 8D). […] Each experiment was repeated three times. For mCherry-GFP-FIS1101-152 assay, 59-85 cells of each group were analyzed in each experiment and for MTG pulse-chase assay, 45 fields were analyzed in each experiment. Values of *p<0.05 vs. DMSO, #p<0.05 vs. “time 0”.
# Mitotracker Green Fluorescence, Anion Radical Superoxide and Mitochondrial Membrane Potential. […] Results are expressed as the percentage of MTG fluorescence relative to MTG fluorescence of the “time 0” control. […] Integrated fluorescence of each field was analyzed in Image J after background subtraction and threshold (IsoData) application. Twenty-four fields of each condition were analyzed in each experiment.
# A second fluorescence technique, Mitotracker Green (MTG) “pulse-and-chase” (FIG. 8 C-E), was utilized to confirm faster mitochondrial clearance upon treatment with SPB08007 and MWP00839. […]
# INS1 cells [2] = assay: Ubiquitinated mitochondrial proteins (anti-ubiquitin blot); details: 25 uM, 24 h
# Procedure: INS1 cells were treated with SPB08007 (25 uM) or DMSO (0.1%) for 24 h. FIG. 17A: total mitochondrial protein isolated from 4×10^7 cells were loaded into SDS-PAGE gel previously added of Stain Free reagent, which was used to detect total protein bands in the BioRad Bio Lab gel reader. Protein was transferred into PVDF membrane, blotted to anti-ubiquitin. FIG. 17B: Quantification of total ubiquitin relative to total mitochondrial proteins. The quantification is expressed relative to DMSO, control. *p=0.001.
# Cell treatments and mitochondrial extraction. INS1 cells were treated with SBP08007 or MWP00839 25 uM for 24 h. Mitochondrial and cytosolic fractions from INS1 cells were performed by using the Mitochondria Isolation Kit for Cultured Cells (Pierce). INS1 cells were lysed in a hypotonic buffer (10 mM NaCl, 1.5 mM MgCl2, and 10 mM Tris.HCl, pH 7.5), and mitochondria were extracted in a Dounce homogenizer in mitochondrial buffer (1 mM EDTA, 210 mM mannitol, 70 mM sucrose, and 5 mM Tris.HCl, 7.5), followed by centrifugation at 1,300×g for 10 min at 4° C. The supernatant was further centrifuged at 17,000×g for 15 min at 4° C. to pellet the mitochondria. […]
# Western blot. […] Stain free total protein labeling was imaged in Image Lab 6.0 Software (BioRad), which was used for quantification of the mitochondria and normalization to total protein staining.
# INS1 cells [3] = assay: Mitochondrial mass by Mitotracker green staining; details: 18 h; SPB08007 25 μM, MWP00839 11.5 μM, Urolithin A 25 μM
# Procedure: The Z-score depicts the standard deviation from the neutral control (DMSO). In FIG. 3C: Mitochondrial mass in INS1 cells treated for 18 hours with either DMSO (control), Urolithin A (25 μM), SPB08007 (“SBP”) (25 μM) or MWP00839 (“MWP”) (11.5 μM) and then stained with Mitotracker green (200 nM). In FIG. 3D: SPB08007 and MWP00839 increase the number of mitochondria inside autolysosomes. INS1 cells expressing mCherry-GFP were exposed to SPB08007, MWP00839, and DMSO for 8 hours and then subjected to confocal microscopy. The area of red fluorescence in the taken images was determined. N=3+/−SEM pANOVA<0.05. FIG. 3E provides representative images. […] FIG. 3F provides the Western blot against LC3 in INS1 cells treated with the compounds in presence or absence of bafilomycin (+b) for the last 2 hours.
# Mitotracker Green Fluorescence, Anion Radical Superoxide and Mitochondrial Membrane Potential. INS1 cells were seeded into wells of a 96-wells glass bottom cell culture plate (CELLSTAR) at a density of 2*10^4 cells/well. To assess mitochondrial clearance, a pulse-chase experiment was performed. […] Results are expressed as the percentage of MTG fluorescence relative to MTG fluorescence of the “time 0” control. […] Integrated fluorescence of each field was analyzed in Image J after background subtraction and threshold (IsoData) application. Twenty-four fields of each condition were analyzed in each experiment.
structure (smiles),measurement,setting,value
CC(=O)N/C(=C\c1sc2ccccc2c1C)C(=O)O [SPB08007],MTG intensity after pulse-chase,INS1 cells [1],lower MTG intensity compared to DMSO
same,ubiquitination of mitochondrial proteins,INS1 cells [2],less ubiquitinated
same,mitochondrial mass (mitotracker green fluorescence),INS1 cells [3],reduction in fluorescence
